The values below come from ChEMBL document CHEMBL2218064, “Structure-activity relationship data for chemical series of antagonists of the P2X7 receptor (Supplementary Bioactivity Data for publication CHEMBL1157114)”.

Each structure is given as a SMILES string.

The target in this experiment is T1, P2X purinoceptor 7 (Homo sapiens, UniProt Q99572).
T1 sequence (Q99572 whole entry): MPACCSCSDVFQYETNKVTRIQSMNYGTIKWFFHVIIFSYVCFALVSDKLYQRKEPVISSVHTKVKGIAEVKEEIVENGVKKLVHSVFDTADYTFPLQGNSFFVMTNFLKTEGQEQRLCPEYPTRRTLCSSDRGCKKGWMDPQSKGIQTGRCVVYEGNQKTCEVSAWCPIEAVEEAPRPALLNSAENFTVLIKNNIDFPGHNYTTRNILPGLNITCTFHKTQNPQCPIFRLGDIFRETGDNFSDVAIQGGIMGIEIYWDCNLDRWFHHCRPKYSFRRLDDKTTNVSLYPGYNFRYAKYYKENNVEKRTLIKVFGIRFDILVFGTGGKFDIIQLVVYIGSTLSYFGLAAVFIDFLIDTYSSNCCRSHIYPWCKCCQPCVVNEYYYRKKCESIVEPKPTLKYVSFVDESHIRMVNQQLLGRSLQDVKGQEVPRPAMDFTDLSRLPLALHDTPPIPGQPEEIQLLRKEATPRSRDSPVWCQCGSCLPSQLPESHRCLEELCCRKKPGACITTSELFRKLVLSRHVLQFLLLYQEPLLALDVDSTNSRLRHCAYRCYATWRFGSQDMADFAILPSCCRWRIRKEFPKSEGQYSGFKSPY
Kind of experiment: SUPPLEMENTARY: Inhibition of human P2X7 receptor assessed as inhibition of ethidium bromide accumulation. Same assay as CHEMBL1103860.
One may read the IC50 as the concentration that inhibits the measured activity by half. For the molecule `O=C1C(=O)N(c2cccc(Cl)c2N2CCOCC2)CCN1Cc1ccc(F)cc1Cl`, the IC50 was 0.0398 µM.
The result for `COc1cccc(N2CCN(Cc3ccc(F)cc3Cl)C(=O)C2=O)c1C` reads 0.0251 µM.
On to `O=C(c1cccc(Cl)c1Cl)N1CCN(c2ccc(F)cc2)C(=O)C1`, for which the IC50 was 0.1 µM.
With `COc1ccc(N2C[C@@H](C(=O)NCc3ccc(Cl)cc3Cl)N(C)C2=O)cn1` the figure was 0.0158 µM.
The result for `CC(C)N1C(=O)CC[C@H]1C(=O)NCc1cccc(Cl)c1Cl` reads 0.02 µM.
With `CN1C(=O)N(c2ccnn2C)C[C@H]1C(=O)NCc1ccc(Cl)cc1Cl` the figure was 0.01 µM; with `CN1C(=O)N(c2cccnc2)C[C@H]1C(=O)NCc1ccc(F)cc1Cl`, 0.0501 µM; with `CCN1C(=O)N(C)C[C@H]1C(=O)NCc1cccc(C(F)(F)F)c1Cl`, 0.000794 µM.
Take `CN(C)c1ccccc1N1CCN(Cc2ccc(F)cc2Cl)C(=O)C1=O`: the 50% inhibitory concentration (IC50) is 0.0631 µM.
In the case of `O=C(c1cccc(C(F)(F)F)c1Cl)N1CCn2c(nc(C(F)(F)F)c2-c2ccccc2)C1`, the concentration for half-maximal inhibition (IC50) is 0.0501 µM.
The result for `O=C(c1cccc(C(F)(F)F)c1Cl)N1CCn2ccnc2C1` reads 0.1 µM.
The result for `O=C(Cc1cnn(CCN2CCCCC2)c1C(F)(F)F)NCc1ccc(F)cc1Cl` reads 0.794 µM.
With `O=C(NCc1cccc(C(F)(F)F)c1Cl)C1COCC(=O)N1Cc1ccccc1` (stereo not drawn) the figure was 0.251 µM; with `CCN1C(=O)CC[C@H]1C(=O)NCc1cccc(F)c1F`, 0.398 µM.
Consider `O=C(c1c(F)ccc(F)c1Cl)N1CCN(c2ccc(F)cc2Cl)C(=O)C1`, for which the IC50 was 0.631 µM.
On to `N#CCCN1CCN(C(=O)c2cccc(C(F)(F)F)c2Cl)CC1=O`, for which the IC50 was 0.316 µM.
The result for `CC(C)N1CC(C(=O)NCc2ccc(Cl)cc2Cl)N(C)C1=O` (stereo not drawn) reads 0.00501 µM; that for `O=C(c1cccc(Cl)c1Cl)N1CCN(c2ccc(F)cc2Cl)C(=O)C1`, 0.0316 µM.
With `CCN1C(=O)c2ccccc2C1C(=O)NCc1cccc(C(F)(F)F)c1Cl` (stereo not drawn) the figure was 0.0794 µM.
As to `Cn1ccc(-c2nnc3n2CCN(C(=O)c2cccc(Cl)c2Cl)C3)n1`, the IC50 is 0.00631 µM.
With `CCN1C(=O)CCC1(C)C(=O)NCc1ccc(Cl)cc1Cl` (stereo not drawn) the figure was 0.1 µM; with `Cc1nn(-c2ncccc2C(F)(F)F)c(C)c1CC(=O)NCc1ccc(F)cc1Cl`, 0.501 µM.
On to `O=C(c1cccc(C(F)(F)F)c1Cl)N1CCn2c(nnc2C2CCCCC2)C1`, for which the IC50 was 0.0501 µM.
The result for `CCN1C(=O)CC[C@H]1C(=O)NCc1ccc(F)c(C(F)(F)F)c1` reads 0.0794 µM.
With `CC(C)N1[C@H](C(=O)NCc2ccc(Cl)cc2Cl)CCCS1(=O)=O` the figure was 0.501 µM.
For the molecule `O=C1C(=O)N(c2ccccc2Br)CCN1Cc1ccc(F)cc1Cl`, the IC50 was 0.0126 µM.
Take `O=C(c1cccc(C(F)(F)F)c1Cl)N1CCn2c(nnc2N2CCOCC2)C1`: the IC50 was 0.251 µM.
The result for `CC(c1ccccc1)N1CCN(C(=O)c2cccc(C(F)(F)F)c2Cl)CC1=O` (stereo not drawn) reads 0.0316 µM; that for `CN1C(=O)N(c2ccc(F)nc2)C[C@H]1C(=O)NCc1ccc(Cl)cc1Cl`, 0.02 µM; that for `Cc1c(F)ccc(N2CCN(Cc3ccc(F)cc3Cl)C(=O)C2=O)c1C`, 0.2 µM.
Regarding `Cc1nn(C(C)(C)C)c(C)c1CC(=O)NCc1ccc(F)cc1Cl`, the IC50 is 0.398 µM.
With `Cc1ccc(F)cc1N1CCN(Cc2ccc(F)cc2Cl)C(=O)C1=O` the figure was 0.0398 µM.
The result for `O=C(c1cccc(C(F)(F)F)c1F)N1CCn2c(nnc2-c2ccccn2)C1` reads 0.00501 µM; that for `CCN1C(=O)CC[C@H]1C(=O)NCc1ccc(F)c(Cl)c1Cl`, 0.00316 µM.
The result for `CCC(CC)N1CCN(C(=O)c2cccc(C(F)(F)F)c2Cl)CC1=O` reads 0.00631 µM; that for `COc1c(Cl)cccc1N1CCN(Cc2ccc(F)cc2Cl)C(=O)C1=O`, 0.0631 µM; that for `Cc1cccnc1N1C[C@@H](C(=O)NCc2ccc(F)c(F)c2Cl)N(C)C1=O`, 0.0251 µM.
Take `CCn1nc(C)c(CC(=O)NCc2ccc(F)cc2Cl)c1C`: the 50% inhibitory concentration (IC50) is 0.2 µM.
With `Cc1ccc(N2CCCC2)cc1N1CCN(C(=O)c2cccc(C(F)(F)F)c2Cl)CC1=O` the figure was 0.0794 µM; with `COCCNCCn1ncc(CC(=O)NCc2ccc(F)cc2Cl)c1C(F)(F)F`, 0.794 µM.
With `COCCn1nc(C)c(CC(=O)NCc2ccc(F)cc2Cl)c1C` the figure was 0.398 µM; with `CN1[C@H](C(=O)NCc2ccc(F)cc2C(F)(F)F)CCS1(=O)=O`, 0.398 µM.
With `CN1C(=O)N(c2cc(C(F)(F)F)ncn2)C[C@H]1C(=O)NCc1cccc(C(F)(F)F)c1Cl` the figure was 0.0316 µM; with `CCN1C(=O)CC[C@H]1C(=O)NCc1c(Cl)cccc1Cl`, 0.1 µM.
Turning to `CCN(CC)C(=O)Cn1nc(C)c(CC(=O)NCc2ccc(F)cc2Cl)c1C`, the concentration for half-maximal inhibition (IC50) was 0.501 µM.
With `Cc1ccccc1N1CCN(Cc2cccc(Cl)c2Cl)C(=O)C1=O` the figure was 0.0251 µM; with `COc1c(F)cccc1N1CCN(Cc2ccc(F)cc2Cl)C(=O)C1=O`, 0.0794 µM.
The result for `Cc1cc(-c2nnc3n2CCN(C(=O)c2cccc(C(F)(F)F)c2Cl)C3)no1` reads 0.0126 µM; that for `O=C(c1cccc(C(F)(F)F)c1Cl)N1CCn2c(nnc2-c2cccnc2)C1`, 0.00631 µM; that for `Cc1c(N2CCOCC2)cccc1N1CCN(C(=O)c2c(Cl)cc(Cl)cc2Cl)CC1=O`, 0.0398 µM.
The result for `O=C(c1ccc(F)cc1Cl)N1CCn2c(Br)nnc2C1` reads 0.316 µM; that for `Cc1nn(CCN2CCCCC2)c(C)c1CC(=O)NCc1ccc(F)cc1Cl`, 0.0501 µM.
Take `Cc1ccccc1-c1cnc2n1CCN(C(=O)c1cccc(C(F)(F)F)c1Cl)C2`: the IC50 was 0.1 µM.
The result for `Cc1nn(Cc2nc3ccccc3s2)c(C)c1CC(=O)NCc1ccc(F)cc1Cl` reads 0.398 µM.
In the case of `CCN1C(=O)CC[C@H]1C(=O)NCc1c(F)cccc1Cl`, the IC50 was 1 µM.
Turning to `Cc1nn(-c2ccc(F)cc2F)c(C)c1CC(=O)NCc1ccc(F)cc1Cl`, the IC50 is 0.0501 µM.
As for `Cc1ccccc1N1CCN(Cc2ccc(F)c(F)c2F)C(=O)C1=O`, the IC50 is 0.251 µM.
On to `COc1c(N2CCOCC2)cccc1N1CCN(Cc2ccc(F)cc2Cl)C(=O)C1=O`, for which the IC50 is 0.0251 µM.
With `CN1C(=O)N(CC2CCC2)CC1C(=O)NCc1ccc(Cl)cc1Cl` (stereo not drawn) the figure was 0.00501 µM; with `O=C(c1ccc(F)cc1Cl)N1CCn2c(nnc2-c2cccc3cc[nH]c23)C1`, 0.0316 µM; with `Cc1c(N2CCOCC2)cccc1N1CCN(C(=O)c2cccc(C(F)(F)F)c2Cl)CC1=O`, 0.0126 µM.
The result for `CN1C(=O)NC[C@H]1C(=O)NCc1c(Cl)cc(Cl)cc1Cl` reads 0.00158 µM; that for `CC(C)N1C(=O)CC[C@H]1C(=O)NCc1cccc(C(F)(F)F)c1Cl`, 0.002 µM.
With `CCN1C(=O)CC[C@H]1C(=O)NCc1c(Cl)ccc(C)c1F` the figure was 0.794 µM; with `Cc1c(Cl)cccc1CNC(=O)[C@@H]1CN(C)C(=O)N1C`, 0.00631 µM.
In the case of `CC1(C(=O)NCc2ccc(Cl)cc2Cl)CCC(=O)N1C1CCC1` (stereo not drawn), the IC50 is 0.1 µM.
The result for `Cc1nn(CC2CCCCC2)c(C)c1CC(=O)NCc1ccc(F)cc1Cl` reads 0.631 µM; that for `COc1cncc(-n2nc(C)c(CC(=O)NCc3ccc(F)cc3Cl)c2C)c1`, 0.398 µM; that for `CC(C)CN1CC(C(=O)NCc2cccc(C(F)(F)F)c2Cl)CC1=O` (stereo not drawn), 0.0631 µM.
On to `COc1cccc(-n2nc(C)c(CC(=O)NCc3ccc(F)cc3Cl)c2C)c1`, for which the IC50 is 0.501 µM.
As to `CN1C(=O)NC[C@H]1C(=O)NCc1ccc(F)cc1Cl`, the IC50 is 0.0398 µM.
Take `Cc1ccc(N2CCC(O)C2)cc1N1CCN(C(=O)c2cccc(C(F)(F)F)c2Cl)CC1=O` (stereo not drawn): the concentration for half-maximal inhibition (IC50) is 0.01 µM.
Take `CN1C(=O)CC[C@H]1C(=O)NCc1cccc(C(F)(F)F)c1C#N`: the IC50 is 0.00631 µM.
With `O=C(c1ccc(Cl)cc1Cl)N1CCn2c(nc(C(F)(F)F)c2-c2ccc(F)cc2)C1` the figure was 0.158 µM; with `Cc1c(Cl)cccc1CNC(=O)[C@H]1CCC(=O)N1C`, 0.1 µM.
The result for `O=C(c1cccc(C(F)(F)F)c1Cl)N1CCn2c(nnc2C2CCCC2)C1` reads 0.0251 µM; that for `CC(C)Oc1cc(F)ccc1N1CCN(C(=O)c2cccc(C(F)(F)F)c2Cl)CC1=O`, 0.01 µM; that for `Cc1ccc(C)c(CNC(=O)Cc2c(C)nn(-c3ccccc3)c2C)c1`, 0.794 µM.
With `Cn1nccc1CC(=O)NCc1cccc(C(F)(F)F)c1Cl` the figure was 0.0251 µM; with `CN1C(=O)CC[C@H]1C(=O)NCc1cccc(C(F)(F)F)c1F`, 0.0251 µM; with `Cc1cc(Cl)ccc1CNC(=O)[C@@H]1CNC(=O)N1C`, 0.0316 µM.
As to `CN1C(=O)N(c2cncnc2)C[C@H]1C(=O)NCc1ccc(F)cc1Cl`, the concentration for half-maximal inhibition (IC50) is 0.251 µM.
Take `CC(C)(C)CN1C(=O)CC[C@H]1C(=O)NCc1cccc(C(F)(F)F)c1Cl`: the IC50 is 0.0251 µM.
Turning to `CN1C[C@@H](C(=O)NCc2ccc(C#N)cc2Cl)N(C)C1=O`, the IC50 is 0.0316 µM.
As for `C=C(C)CN1C(=O)CC[C@H]1C(=O)NCc1ccc(F)cc1Cl`, the IC50 was 0.398 µM.
With `Cc1nn(-c2ccccc2)c(C)c1CC(=O)NCc1ccc(F)c(F)c1` the figure was 0.251 µM; with `O=C(c1cccc(C(F)(F)F)c1Cl)N1CCN(c2ccc(F)cc2F)C(=O)C1`, 0.0631 µM; with `CCN1C(=O)[C@H](Cc2ccccc2)C[C@H]1C(=O)NCc1cccc(C(F)(F)F)c1Cl`, 0.0316 µM.
